Changes are numbered by the printed parent chain. Where two headings read alike, the source gives them in different places.
Legend:
α2 GlyR = target: T1, α2 GlyR (Rattus norvegicus, UniProt P22771); assay: cell-based; assay type: cell-based
T1 construct: The cells were transfected with plasmids encoding the following proteins; expressed in transfected cells; host or cells: HEK293 (ATCC CRL-1573)
T1 sequence (P22771 28-452): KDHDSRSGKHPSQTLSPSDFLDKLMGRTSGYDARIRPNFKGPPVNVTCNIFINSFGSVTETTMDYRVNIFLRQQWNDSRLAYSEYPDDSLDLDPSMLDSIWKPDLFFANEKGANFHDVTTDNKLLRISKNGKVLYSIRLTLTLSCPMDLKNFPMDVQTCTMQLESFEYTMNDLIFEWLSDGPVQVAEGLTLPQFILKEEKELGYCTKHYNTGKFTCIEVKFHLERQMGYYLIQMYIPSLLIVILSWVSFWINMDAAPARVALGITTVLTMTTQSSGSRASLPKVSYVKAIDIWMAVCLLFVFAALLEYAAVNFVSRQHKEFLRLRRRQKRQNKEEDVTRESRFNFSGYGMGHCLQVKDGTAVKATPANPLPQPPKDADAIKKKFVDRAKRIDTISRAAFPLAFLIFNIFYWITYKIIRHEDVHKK
Procedure: (§1) The cells were transfected with plasmids encoding the following proteins: (i). rat GlyR α (1, 2, 3) subunits alone or combined with rat β subunits (Uniprot Accession Numbers: Q546L7, P22771, P20236, P20781); and (ii). rat GABAAR α1 combined with rat β2 and γ2 subunits (Uniprot Accession Numbers: P62813, P63138, P18508). The EGFP expression was used as a marker of successful protein expression. The transfection was performed using Lipofectamine 2000 (Invitrogen, ThermoFisher, Carlsbad, CA, USA) using the fabricant protocol. The plasmids used to express GlyRs and GABAARs have been previously described. To track the successful expression of GlyR β subunits and the GABAA γ2 or β2 subunit, these proteins were subcloned in the pIRES2-EGFP vector. The transfection ratio to obtain β-containing GlyRs was 1:5 of α:β, while the expression of γ2-containing GABAA receptors was 1:2:5 of α:β:γ2 [14, 15]. Chimeric GlyRs were described in a previous report. Site directed mutagenesis was performed by Charm Gene Science Mutagenex LLC. (Cumming, GA, USA). All the constructs were checked by full-length sequencing (SNPSaurus, Eugene, OR, USA).
(§2) In brief, patch electrodes (3–4 MΩ) were pulled from borosilicate glasses in a PC-100 puller (Narishige, Tokyo, Japan); then, they were filled with an intracellular solution, which contained (in mM) 120 CsCl, 8 EGTA, 10 HEPES (pH 7.4), 4 MgCl2, 0.5 GTP, and 2 ATP. The extracellular solution contained (in mM) 140 NaCl, 5.4 KCl, 2.0 CaCl2, 1.0 MgCl2, 10 HEPES (pH 7.4), and 10 glucose. Whole-cell patch-clamp recordings were performed at −60 mV with an Axoclamp 200B (Molecular Devices, Sunnyvale, CA, USA) or with HEKA EPC-10 (HEKA Elektronik GmbH, Reutlingen, Germany) amplifiers. […] Brief (3–5 s) pulses of agonist together with alkaloids were applied to cells. Stock solutions of the alkaloids were prepared in high purity distilled water. Aliquots of these stock solutions were diluted in reservoirs containing extracellular solution. […] The concentration–response curve parameters for the alkaloid inhibition (IC50, nH, and the maximal current inhibition) were obtained from the fitted curve of normalized concentration–response data points to the equation Iagonist = Imax (agonist)nH/((agonist)nH + (EC50)nH). The IC50 curves are best-fit mean ± SE from pooled data. […] The inhibition constant (Ki) was calculated using the Cheng–Prusoff equation (Ki = IC50/((2 + ([Agonist]/EC50)^nH)^1/nH − 1). The concentration of agonist corresponds to the sub-saturating agonist concentration used to obtain the IC50 for each alkaloid on a given GlyR subtype.

α1GlyR F63A = target: T2, α1GlyR F63A (Rattus norvegicus, UniProt P07727, F91A); assay type: cell-based
T2 construct: expressed in transfected cells; host or cells: HEK293 (ATCC CRL-1573)
T2 sequence (P07727 29-457 F91A): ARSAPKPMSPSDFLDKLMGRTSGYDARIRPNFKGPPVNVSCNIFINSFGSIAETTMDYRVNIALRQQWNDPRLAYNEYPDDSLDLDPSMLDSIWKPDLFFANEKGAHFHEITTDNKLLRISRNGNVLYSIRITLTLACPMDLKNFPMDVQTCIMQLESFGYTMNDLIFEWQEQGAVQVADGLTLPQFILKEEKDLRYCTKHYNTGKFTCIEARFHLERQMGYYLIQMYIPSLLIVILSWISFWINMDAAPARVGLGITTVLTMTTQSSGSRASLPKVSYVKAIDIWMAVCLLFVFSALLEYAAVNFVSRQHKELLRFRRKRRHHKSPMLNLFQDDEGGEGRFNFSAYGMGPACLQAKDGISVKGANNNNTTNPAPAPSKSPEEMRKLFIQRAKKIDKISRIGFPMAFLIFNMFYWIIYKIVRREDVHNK
Procedure: as §1, §2

α1GlyR G160E = target: T3, α1GlyR G160E (Rattus norvegicus, UniProt P07727, G188E); assay type: cell-based
T3 construct: expressed in transfected cells; host or cells: HEK293 (ATCC CRL-1573)
T3 sequence (P07727 29-457 G188E): T2 sequence (P07727 29-457 F91A) with A63F, G160E
Procedure: as §1, §2

[1] = in vivo studies; cited from earlier work

Structure (SMILES) | effect on glycine-evoked currents (in words) (α2 GlyR; wild-type, 50 μM gelsemine, 60 μM glycine) | alkaloid sensitivity of glycine-evoked currents (in words) (α1GlyR F63A; F63A, gelsemine 10 μM or 200 μM, 2 mM glycine) | alkaloid sensitivity of glycine-evoked currents (in words) (α1GlyR G160E; G160E, gelsemine 10 μM or 200 μM, 1 mM glycine) | LD50 [1] | EC50 (α2 GlyR; read-out: EC50 of agonist) | IC50 (α2 GlyR) | nH (α2 GlyR; Hill coefficient of inhibition curve) | Ki (α2 GlyR; calculated using the Cheng–Prussof equation) | alkaloid sensitivity of glycine-evoked currents (in words) (α1GlyR F63A) | alkaloid sensitivity of glycine-evoked currents (in words) (α1GlyR G160E)
C=C[C@]12CN(C)[C@@H]3[C@H]4CO[C@H](C[C@H]41)[C@]1(C(=O)Nc4ccccc41)[C@@H]32 [gelsemine] | inhibited | insensitive | insensitive | higher than 50 mg/kg |  |  |  |  |  | 
NCC(=O)O [glycine, reference compound] |  |  |  |  | 91 ± 6 µM |  |  |  |  | 
C=C[C@@]12CN(C)[C@H]3C[C@]14C(=Nc1ccccc14)[C@H]1C[C@@H]2[C@@H]3CO1 [koumine] |  |  |  | higher than 50 mg/kg |  | 11.2 ± 2.1 µM | 1.0 ± 0.2 | 44.2 ± 4.6 µM | not exert detectable effects | not exert detectable effects
